Data reported in patent US10954232B2, “Pyrazole derivative as ALK5 inhibitor and uses thereof” (HANMI PHARMACEUTICAL CO., LTD., priority 2016, dated 2021).

Molecular target: T1, ALK5 kinase (Homo sapiens, UniProt P36897)
T1 construct: GST; purchased Thermo Fisher Scientific Solutions
T1 sequence (P36897 34-503): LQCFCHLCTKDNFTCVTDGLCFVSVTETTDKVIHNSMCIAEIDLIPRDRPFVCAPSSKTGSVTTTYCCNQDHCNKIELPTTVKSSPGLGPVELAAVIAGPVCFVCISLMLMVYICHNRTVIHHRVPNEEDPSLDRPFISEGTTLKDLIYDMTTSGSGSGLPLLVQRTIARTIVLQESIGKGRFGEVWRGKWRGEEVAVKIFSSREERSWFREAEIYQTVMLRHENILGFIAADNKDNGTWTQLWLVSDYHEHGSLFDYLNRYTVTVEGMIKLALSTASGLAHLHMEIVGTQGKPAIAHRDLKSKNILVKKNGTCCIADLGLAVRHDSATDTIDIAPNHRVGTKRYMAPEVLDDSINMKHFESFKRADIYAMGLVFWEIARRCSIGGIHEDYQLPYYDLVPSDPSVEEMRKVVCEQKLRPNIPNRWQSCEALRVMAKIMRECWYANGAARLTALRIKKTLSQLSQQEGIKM
Assay: Activity inhibition test on ALK5 enzyme (LanthaScreen Eu binding kinase assay)
Settings: kinase tracer 178, 60 minutes at room temperature
Protocol: For each of the compounds obtained in Examples 1 to 227, inhibitory activity against ALK5 kinase was measured.
For this, a LanthaScreen Eu binding kinase assay method was used, and ALK5 kinase, a kinase buffer, a kinase tracer 178, and a LanthaScreen Eu-GST binding antibody were all purchased from Thermo Fisher Scientific Solutions. Each of the compounds was made into a 10 mM DMSO solution, and diluted by 1/10 to a concentration of 1 μM to 0.0001 μM with an aqueous solution containing 4% DMSO. The test was performed in 384 well plates (well polystyrene low volume round-bottomed plates). First, 5 μL of the diluted compound solution was added, then 5 μL of the kinase/antibody mixture solution was introduced thereto, and 5 μL of the tracer was introduced thereto. Herein, these were added to each well so that the final kinase concentration became 5 nM, the final Eu-GST binding antibody concentration 2 nM, and the kinase tracer 178 concentration 10 nM, and the result was reacted in a stirrer for 60 minutes at room temperature. Then a fluorescence value was measured using a fluorescence meter (molecular device) ([…], 665 nm emission filter). Herein, as for the degree of compound activity to inhibit the kinase reaction, a phosphorylate rate was calculated from 0% to 100% with respect to a control group according to the protocol included in the kit, and a 50% inhibitory concentration (IC50) value was calculated by obtaining the x-axis concentration in the region where 50% activity was inhibited.

Molecule	IC50 [nM]
5-([1,2,4]triazolo[1,5-α]pyridin-6-yl)-N-(1-cyclopropyl sulfonyl)-1H-pyrazol-4-yl)-1-(6-methylpyridin-2-yl)-1H-pyrazole-3-carboxyamide [Example 163]	4.6
5-([1,2,4]triazolo[1,5-α]pyridin-6-yl)-N-(4-((1,1-dioxidotetrahydrothiophen-3-yl)amino)phenyl)-1-(6-methylpyridin-2-yl)-1H-pyrazole-3-carboxyamide [Example 109]	9.7
COc1ccc(NC(=O)c2cc(-c3ccc4ncsc4c3)n(-c3cccc(C)n3)n2)cc1 [Example 1, 5-(benzo[d]thiazol-6-yl)-N-(4-methoxyphenyl)-1-(6-methylpyridin-2-yl)-1H-pyrazole-3-carboxyamide]	5
CCOc1ccc(NC(=O)c2cc(-c3ccc4ncsc4c3)n(-c3cccc(C)n3)n2)cc1 [Example 2, 5-(benzo[d]thiazol-6-yl)-N-(4-ethoxyphenyl)-1-(6-methylpyridin-2-yl)-1H-pyrazole-3-carboxyamide]	4.7
Cc1cccc(-n2nc(C(=O)Nc3ccc(OCC4CC4)cc3)cc2-c2ccc3ncsc3c2)n1 [Example 3, 5-(benzo[d]thiazol-6-yl)-N-(4-(cyclopropylmethoxy)phenyl)-1-(6-methylpyridin-2-yl)-1H-pyrazole-3-carboxyamide]	12
COCCOc1ccc(NC(=O)c2cc(-c3ccc4ncsc4c3)n(-c3cccc(C)n3)n2)cc1 [Example 4, 5-(benzo[d]thiazol-6-yl)-N-(4-(2-methoxyethoxy)phenyl)-1-(6-methylpyridin-2-yl)-1H-pyrazole-3-carboxyamide]	4.4
Cc1cccc(-n2nc(C(=O)Nc3ccc(OC(F)(F)F)cc3)cc2-c2ccc3ncsc3c2)n1 [Example 5, 5-(benzo[d]thiazol-6-yl)-1-(6-methylpyridin-2-yl)-N-(4-(trifluoromethoxy)phenyl)-1H-pyrazole-3-carboxyamide]	10 to 100
Cc1cccc(-n2nc(C(=O)Nc3ccc4c(c3)OCO4)cc2-c2ccc3ncsc3c2)n1 [Example 7, N-(benzo[d][1,3]dioxol-5-yl)-5-(benzo[d]thiazol-6-yl)-1-(6-methylpyridin-2-yl)-1-H-pyrazole-3-carboxyamide]	< 10
COc1cc(NC(=O)c2cc(-c3ccc4ncsc4c3)n(-c3cccc(C)n3)n2)ccc1F [Example 8, 5-(benzo[d]thiazol-6-yl)-N-(4-fluoro-3-methoxyphenyl)-1-(6-methylpyridin-2-yl)-1H-pyrazole-3-carboxyamide]	4.7
Cc1cccc(-n2nc(C(=O)Nc3ccc([N+](=O)[O-])cc3)cc2-c2ccc3ncsc3c2)n1 [Example 14, 5-(benzo[d]thiazol-6-yl)-1-(6-methylpyridin-2-yl)-N-(4-nitrophenyl)-1H-pyrazole-3-carboxyamide]	17
Cc1cccc(-n2nc(C(=O)Nc3ccc(N(C)CCN(C)C)cc3)cc2-c2ccc3ncsc3c2)n1 [Example 15, 5-(benzo[d]thiazol-6-yl)-N-(4-((2-(dimethylamino)ethyl)(methyl)amino)phenyl)-1-(6-methylpyridin-2-yl)-1H-pyrazole-3-carboxyamide]	6.4
Cc1cccc(-n2nc(C(=O)Nc3ccc(N4CC5CCCNC5C4)c(Cl)c3)cc2-c2ccc3ncsc3c2)n1 (stereo not drawn) [Example 17, 5-(benzo[d]thiazol-6-yl)-N-(3-chloro-4-(octahydro-6H-pyrrolo[3,4-b]pyridin-6-yl)phenyl)-1-(6-methylpyridin-2-yl)-1H-pyrazole-3-carboxyamide]	14
C=Cc1cccc(NC(=O)c2cc(-c3ccc4ncsc4c3)n(-c3cccc(C)n3)n2)c1 [Example 20, 5-(benzo[d]thiazol-6-yl)-1-(6-methylpyridin-2-yl)-N-(3-vinylphenyl)-1H-pyrazole-3-carboxyamide]	10 to 100
Cc1cccc(-n2nc(C(=O)Nc3cccc(C#N)c3)cc2-c2ccc3ncsc3c2)n1 [Example 22]	10 to 100
CC(=O)c1cccc(NC(=O)c2cc(-c3ccc4ncsc4c3)n(-c3cccc(C)n3)n2)c1 [Example 23, 5-(benzo[d]thiazol-6-yl)-N-(3-acetylphenyl)-1-(6-methylpyridin-2-yl)-1H-pyrazole-3-carboxyamide]	~10
CCOC(=O)c1cccc(NC(=O)c2cc(-c3ccc4ncsc4c3)n(-c3cccc(C)n3)n2)c1 [Example 24, ethyl 3-(5-(benzo[d]thiazol-6-yl)-1-(6-methylpyridin-2-yl)-1H-pyrazole-3-carboxyamido)benzoate]	~100
CNC(=O)c1ccc(NC(=O)c2cc(-c3ccc4ncsc4c3)n(-c3cccc(C)n3)n2)cc1 [Example 25, 5-(benzo[d]thiazol-6-yl)-N-(4-(methylcarbamoyl)phenyl)-1-(6-methylpyridin-2-yl)-1H-pyrazole-3-carboxyamide]	< 10
CC(=O)Nc1ccc(NC(=O)c2cc(-c3ccc4ncsc4c3)n(-c3cccc(C)n3)n2)cc1 [Example 26, 5-(benzo[d]thiazol-6-yl)-N-(4-acetamidophenyl)-1-(6-methylpyridin-2-yl)-1H-pyrazole-3-carboxyamide]	10 to 100
Cc1cccc(-n2nc(C(=O)Nc3ccccc3F)cc2-c2ccc3ncsc3c2)n1 [Example 27, 5-(benzo[d]thiazol-6-yl)-N-(2-fluorophenyl)-1-(6-methylpyridin-2-yl)-1H-pyrazole-3-carboxyamide]	6.2
Cc1cccc(-n2nc(C(=O)Nc3cccc(F)c3)cc2-c2ccc3ncsc3c2)n1 [Example 28, 5-(benzo[d]thiazol-6-yl)-N-(3-fluorophenyl)-1-(6-methylpyridin-2-yl)-1H-pyrazole-3-carboxyamide]	4.5

Second part, the molecule after the results:

IC50 [nM]	Molecule
11	Cc1cccc(-n2nc(C(=O)Nc3ccc(OCc4ccccc4)cc3)cc2-c2ccc3ncsc3c2)n1 [Example 6, 5-(benzo[d]thiazol-6-yl)-N-(4-(benzyloxy)phenyl)-1-(6-methylpyridin-2-yl)-1H-pyrazole-3-carboxyamide]
19	COc1ccc(NC(=O)c2cc(-c3ccc4ncsc4c3)n(-c3cccc(C)n3)n2)c(F)c1 [Example 9, 5-(benzo[d]thiazol-6-yl)-N-(2-fluoro-4-methoxyphenyl)-1-(6-methylpyridin-2-yl)-1H-pyrazole-3-carboxyamide]
10	COc1ccc(NC(=O)c2cc(-c3ccc4ncsc4c3)n(-c3cccc(C)n3)n2)cc1F [Example 10, 5-(benzo[d]thiazol-6-yl)-N-(3-fluoro-4-methoxyphenyl)-1-(6-methylpyridin-2-yl)-1H-pyrazole-3-carboxyamide]
2.2	Cc1cccc(-n2nc(C(=O)Nc3cccc(N)c3)cc2-c2ccc3ncsc3c2)n1 [Example 11, 5-(benzo[d]thiazol-6-yl)-N-(3-aminophenyl)-1-(6-methylpyridin-2-yl)-1H-pyrazole-3-carboxyamide]
6.1	CNc1cccc(NC(=O)c2cc(-c3ccc4ncsc4c3)n(-c3cccc(C)n3)n2)c1 [Example 12, 5-(benzo[d]thiazol-6-yl)-N-(3-(methylamino)phenyl)-1-(6-methylpyridin-2-yl)-1H-pyrazole-3-carboxyamide]
10 to 100	Cc1cccc(-n2nc(C(=O)Nc3ccc(N(C)C)cc3)cc2-c2ccc3ncsc3c2)n1 [Example 13, 5-(benzo[d]thiazol-6-yl)-N-(4-(dimethylamino)phenyl)-1-(6-methylpyridin-2-yl)-1H-pyrazole-3-carboxyamide]
2.3	Cc1cccc(-n2nc(C(=O)Nc3ccc(N4CC[C@H](N(C)C)C4)cc3)cc2-c2ccc3ncsc3c2)n1 [Example 16, 5-(benzo[d]thiazol-6-yl)-N-(4-(3-(dimethylamino)pyrrolidin-1-yl)phenyl)-1-(6-methylpyridin-2-yl)-1H-pyrazole-3-carboxyamide]
10 to 100	Cc1cccc(-n2nc(C(=O)Nc3ccccc3)cc2-c2ccc3ncsc3c2)n1 [Example 18, 5-(benzo[d]thiazol-6-yl)-1-(6-methylpyridin-2-yl)-N-phenyl-1H-pyrazole-3-carboxyamide]
10 to 100	Cc1cccc(NC(=O)c2cc(-c3ccc4ncsc4c3)n(-c3cccc(C)n3)n2)c1 [Example 19, 5-(benzo[d]thiazol-6-yl)-N-(3-tolyl)-1-(6-methylpyridin-2-yl)-1H-pyrazole-3-carboxyamide]
~100	Cc1cccc(-n2nc(C(=O)Nc3cccc(C(F)(F)F)c3)cc2-c2ccc3ncsc3c2)n1 [Example 21, 5-(benzo[d]thiazol-6-yl)-N-(3-(trifluoromethyl)phenyl)-1-(6-methylpyridin-2-yl)-1H-pyrazole-3-carboxyamide]
